Results from US20230116703A1, “NOVEL ERGOLINES AND METHODS OF TREATING MOOD DISORDERS” (priority 2021, published 2023).

Test system: C57BL/6 mice
Experiment: Marble burying test (MBT) in mice
Type: in vivo
Settings: mouse, SC, 30-minute period
Procedure: Compound 1 produced an anxiolytic-like effect in the marble burying test (MBT) in C57BL/6 mice (FIG. 3).
Animals. Adult male C57BL/6 mice, aged 8-10 weeks (body weight 20-25 g) were used in these experiments. Animals were housed under controlled temperatures and 12-hour light/dark cycles (lights on between 07:00-19:00 h), with ad libitum food and water. This study was carried out in strict accordance with the requirements of the Committee for the Purpose of Control and Supervision of Experiments on Animals (CPCSEA), India. All efforts were made to minimize suffering.
Drugs and Drug Administration. Compound 1 was synthesized as described above. Desipramine HCl was commercially obtained. The test compound, vehicle, and the positive control desipramine were administered subcutaneously (SC), with doses calculated based on the freebase. Normal saline was used as the vehicle. All compounds were administered at a volume of 10 mL/kg. All treatments were administered 30 minutes prior to the start of behavioral testing. Group size was n=9-10 per treatment.
Marble Burying Test (MBT). […] Mice were handled for about 2 min daily for the 3 days prior to the beginning of the experimental procedure. […] The total number of marbles buried were counted in three 10-minute time bins (total 30 minutes). […]

Q: With `CCCN1C[C@H](C(=O)N(CC)CC)C=C2c3cccc4[nH]cc(c34)C[C@H]21` [Compound 1, (6aR,9R)—N,N-diethyl-7-propyl-4,6,6a,7,8,9-hexahydroindolo[4,3-fg]quinoline-9-carboxamide] as the molecule, how does the “number of marbles buried compared to vehicle (in words)” value read?
A: Its value is “reduced the number of marbles buried”.
